Source: patent publication US20090259054A1, “Methods and Compositions for the Treatment of Angiogenesis and Macular Degeneration” (The Texas A&M University System, priority 2008, published 2009)
“And” between values parts separate entries of the source, which are not always exact repeats. Equal values may be shown once. “Also recorded” adds a separate entry of the source. Read-outs that look alike come from different tables or passages of the source.

Assays:
C57BL/6 mice = test: Matrigel plug assay (VEGF dependent angiogenesis in vivo); details: VEGF 4 ng/ml, 7 days
Experimental: Matrigel (0.5 ml/plug) with no VEGF or GA, VEGF (4 ng/ml) but no GA, VEGF (4 ng/ml) and 0.1 μM GA or 0.2 μM GA in liquid form at 4° C., respectively, were injected subcutaneously in the midventral abdominal region of 5-6 week old C57BL/6 mice (five mice for each group). After 7 days, the mice were sacrificed and the plugs were removed. Each concentration had 4-5 Matrigel plugs. The Matrigel plugs were fixed with formalin and embedded with paraffin. The 5 μm sections were stained with H&E staining. The number of erythrocyte-filled blood vessels in the high power microscope field (HPF, 200×) was recorded (plug number=4-5, t-test, p<0.005).

[1] = system: PC3 human prostate tumor cells in SCID male mice; type: in vivo
Experimental: The 5-6 week old severe combined immune deficiency (SCID) male mice (ordered from NIH, each weighing about 20 g) were divided into groups of five mice per group. Log-phase PC3 human prostate tumor cells were subcutaneously injected (2×10^6 cell per mouse) into the mice. After the tumors had become established (about 50 mm^3), the mice were subcutaneously injected with or without 3 mg/kg GA every day. The mice body weights and tumor sizes were recorded every day and the tumor sizes were determined by Vernier caliper measurements and calculated as length×width×height. After 15 days, mice with subcutaneous (hereinafter, s.c.) tumors no greater than 1.5 cm in diameter were sacrificed in accordance with University of California Los Angeles Animal Rights Committee Guidelines. The tumors were removed and fixed with Histochoice® MB (Molecular Biology) tissue fixative (Amresco®) and embedded with paraffin. The 5 μm sections were performed specific blood vessel staining with CHEMICON's Blood Vessel Staining Kit (von Willebrand Factor, Chemicon International, blood vessel staining kit, peroxidase system). Images were taken with a ZEISS Axioskop 40 photomicroscope. The number of blood vessels in the high power fields (HPF, 200×) was counted (plug number=4-5, t-test, p<0.005).

HUVEC cells [2] = test: Western blotting for cleaved caspase 3 and cleaved PARP (apoptosis); type: cell-based, human; details: 100 nM GA
Experimental: HUVEC cells pretreated with or without 4 nM VEGF for 5 min were treated with or without different concentrations of GA for another 5 minutes. 200 μg total protein of the cells of each sample was subjected to immunoprecipitation using anti-c-Src, anti-FAK and anti-AKT antibodies (Santa Cruz Biotech) and further subjected to Western blotting. The pTyr-antibody (Santa Cruz Biotech) was used for detecting c-Src phosphorylation and the pFAK397 antibody (Cell Signaling) was blotted for c-Src-associated FAK phosphorylation at […]. In addition, AKT phosphorylation was examined using a pSer473-AKT antibody (Cell Signaling). Anti-cleaved caspase 3 antibody (Santa Cruz Biotech) was used for detecting cleaved caspase 3 and polyADP ribose polymerase (PARP) cleavage was detected by an anti-PARP p85 fragment (Promega) in apoptosis assays.
Several previous studies described gambogic acid (FIG. 1A) activated apoptosis in cancer cells, which partly answered the molecular mechanism of GA's anticancer characters. […] Whole cell proteins of GA treated HUVECs were analyzed by Western blotting with anticleaved caspase 3 and PARP antibodies. […] To investigate if the apoptotic activation effect of GA is different between endothelial cells and cancer cells, we measured the apoptotic populations of HUVECs and human prostate cancer cell PC3 cells treated with GA by flow cytometry FACS assays. […]

HUVEC cells [3] = test: Tube formation assay on Matrigel; type: cell-based, human; details: for IC50: Homo sapiens, HUVEC
Experimental: Matrigel (BD Biosciences) were thawed at 4° C. overnight and each well of the prechilled 24-well plates was coated with 100 μl Matrigel and incubated at 37° C. for 45 minutes. HUVEC cells (4×10^4 cells) were added in 1 ml ECGM with various concentrations of gambogic acid. After 12-16 hours of incubation at 37° C., 5% CO2, endothelial cell tube formation was assessed using an OLYMPUS inverted microscope. Tubular structures were quantified by manual counting of low power fields (25×) and percent inhibition was expressed using untreated wells as 100% (t-test, p<0.001).

AKT = AKT phosphorylation (pSer473) in HUVEC cells (immunoprecipitation, Western blotting); type: cell-based, human; details: HUVEC cells with or without VEGF, increasing concentration of GA
Experimental: (§1) After starvation in ECGM medium without serum overnight, HUVEC cells were washed with 1×PBS twice, followed with incubation in M199 medium. HUVEC cells were then treated with 1 nM of GA and/or 4 nM of VEGF for 5 minutes, then subjected to immunoprecipitation using anti-VEGFR2 antibody. Anti-phosphotyrosine antibody was used for the detection of phosphorylation of the tyrosine residue of VEGFR2. […] Reaction cocktail containing 100 ng of active VEGFR2 was incubated with different concentrations of GA for 5 minutes at room temperature. Substrate peptide cocktail was added to the pre-incubated reaction cocktail/GA compound. After incubation at room temperature for 30 minutes, stop buffer was added to halt the reaction. 25 μl of each reaction was then transferred with 75 μl dH2O per well into a 96-well streptavidin coated plate and incubated at room temperature for 60 minutes. […] The stop solution was added and the plate was detected at 405 nm. […]
(§2) HUVEC cells pretreated with or without 4 nM VEGF for 5 min were treated with or without different concentrations of GA for another 5 minutes. […] Anti-cleaved caspase 3 antibody (Santa Cruz Biotech) was used for detecting cleaved caspase 3 and polyADP ribose polymerase (PARP) cleavage was detected by an anti-PARP p85 fragment (Promega) in apoptosis assays.

FAK = FAK phosphorylation in HUVEC cells (immunoprecipitation, Western blotting); type: cell-based, human; details: HUVEC cells with or without VEGF, GA 1-40 nM, 5 minutes
Experimental: as §1, §2

CC(C)=CCC[C@]1(C)C=Cc2c(O)c3c(c(CC=C(C)C)c2O1)O[C@]12C(=C[C@@H]4C[C@H]1C(C)(C)O[C@@]2(C/C=C(/C)C(=O)O)C4=O)C3=O [GA, gambogic acid]
VEGF dependent angiogenesis in Matrigel plugs (C57BL/6 mice; 0.1 μM GA): inhibited VEGF dependent angiogenesis
VEGF dependent angiogenesis in Matrigel plugs (C57BL/6 mice; 0.2 μM GA): totally abolished angiogenesis
Tumor size after 15 days ([1]; 3 mg/kg GA every day s.c., 15 days): 169.1±25.6 mm^3 and 127.4±25.6 mm^3
Average vessel number in tumors ([1]; 3 mg/kg GA every day, 15 days, HPF 200×): 1.8±1.3 per HPF
Tumor size at start of treatment ([1]; GA treated group, before 3 mg/kg GA every day): 51.74±3.8 mm^3
Average body weight at start ([1]; mouse, in vivo): 22.4 ± 1 g
Apoptosis by cleaved caspase 3 and cleaved PARP (HUVEC cells [2]): induces apoptosis; also recorded: strongly induced apoptosis
Tube formation ability of HUVECs (HUVEC cells [3]; 100 nM GA): completely inhibited the tube-forming ability; also recorded: completely inhibited the tube formation ability
IC50 (HUVEC cells [3]; 12-16 hours, read-out: Concentration that inhibited tube formation of HUVEC cells by 50%): ~50 nM
IC50 (HUVEC cells [3]; as printed in the legend of FIG. 3, read-out: Concentration that inhibited 50% tube formation of HUVEC cells): ~50 nM
Phosphorylation and activation of AKT (pSer473) (AKT): inhibited AKT phosphorylation and activation
Phosphorylation and activation of FAK (FAK): significantly inhibited the phosphorylation and activation
